Data taken from ChEMBL document CHEMBL5584230, “Exploring fluorine-substituted piperidines as potential therapeutics for diabetes mellitus and Alzheimer's diseases” (Eur J Med Chem, 2024).
Several values for one entry are separate records, joined by “and”; a condition that tells them apart may be missing. Identical values can stand only once. Activity calls are given as the source filed them. The calls are words filed in the database; no cut-off is given here.

Assays:
[1] = Antioxidant activity assessed as DPPH radical scavenging activity incubated for 30 mins; format: functional
Cholinesterase = Cholinesterase (Homo sapiens, UniProt P06276); assay: Inhibition of BchE (unknown origin)
[2] = Inhibition of alpha-glucosidase (unknown origin); parameters: species or system Homo sapiens
Acetylcholinesterase [3] = biological target: T1, Acetylcholinesterase (Homo sapiens, UniProt P22303); assay: Inhibition of AChE (unknown origin)
[4] = Antioxidant activity assessed as ABTS radical scavenging activity; format: functional
Rattus norvegicus [5] = assay: Anti-diabetic activity in STZ-induced diabetic Sprague-Dawley rat model assessed as reduction in HDL level in plasma at 9 mg/kg, ip (reference value: 21.09 +/- 1.71 mg/dl); format: functional
Rattus norvegicus [6] = assay: Anti-diabetic activity in STZ-induced diabetic Sprague-Dawley rat model assessed as reduction in blood glucose level at 9 mg/kg, ip measured at day 1 (reference value: 494.14 +/- 4.15 mg/dl); format: functional; details: time 1 day
Rattus norvegicus [7] = assay: Anti-diabetic activity in STZ-induced diabetic Sprague-Dawley rat model assessed as change in blood glucose level at 9 mg/kg, ip measured for 28 days; format: functional, organism-based; details: time 28.0 day
[8] = Acute toxicity in BALB/c mouse upto 100 mg/kg, ip administered for 72 hrs and measured after 14 days; format: organism-based; details: in vivo, 408 h, time 17 day
Rattus norvegicus [9] = assay: Anti-diabetic activity in STZ-induced diabetic Sprague-Dawley rat model assessed as increase in body weight at 9 mg/kg, ip measured at day 14; format: functional, organism-based; details: time 14.0 day
Acetylcholinesterase [10] = biological target: T1, Acetylcholinesterase; assay: Inhibition of AChE (unknown origin) using […] assessed as inhibition constant by Lineweaver-Burk plot analysis
Rattus norvegicus [11] = assay: Anti-diabetic activity in STZ-induced diabetic Sprague-Dawley rat model assessed as reduction in TG level in plasma at 9 mg/kg, ip (reference value: 226.19 +/- 3.97 mg/dl); format: functional
Rattus norvegicus [12] = assay: Anti-diabetic activity in STZ-induced diabetic Sprague-Dawley rat model assessed as reduction in LDL level in plasma at 9 mg/kg, ip (reference value: 138.19 +/- 3.67 mg/dl); format: functional
Rattus norvegicus [13] = assay: Anti-diabetic activity in STZ-induced diabetic Sprague-Dawley rat model assessed as increase in body weight at 9 mg/kg, ip measured at day 1; format: functional, organism-based; details: time 1.0 day
Rattus norvegicus [14] = assay: Anti-diabetic activity in STZ-induced diabetic Sprague-Dawley rat model assessed as reduction in blood glucose level at 9 mg/kg, ip measured at day 21 (reference value: 503.09 +/- 4.15 mg/dl); format: functional; details: time 21 day
Rattus norvegicus [15] = assay: Anti-diabetic activity in STZ-induced diabetic Sprague-Dawley rat model assessed as reduction in cholesterol level in plasma at 9 mg/kg, ip (reference value: 218 +/- 4.41 mg/dl); format: functional
Rattus norvegicus [16] = assay: Anti-diabetic activity in STZ-induced diabetic Sprague-Dawley rat model assessed as reduction in blood glucose level at 9 mg/kg, ip measured at day 28 (reference value: 501.71 +/- 3.91 mg/dl); format: functional; details: time 28 day
Rattus norvegicus [17] = assay: Anti-diabetic activity in STZ-induced diabetic Sprague-Dawley rat model assessed as reduction in blood glucose level at 9 mg/kg, ip measured at day 7 (reference value: 490.69 +/- 3.98 mg/dl); format: functional; details: time 7 day
Rattus norvegicus [18] = assay: Anti-diabetic activity in STZ-induced diabetic Sprague-Dawley rat model assessed as reduction in blood glucose level at 9 mg/kg, ip measured at day 14 (reference value: 489.44 +/- 4.18 mg/dl); format: functional; details: time 14 day
Acetylcholinesterase [19] = biological target: T1, Acetylcholinesterase; assay: Mixed type inhibition of AChE (unknown origin) using […] assessed as effect on Vmax and Km at 1.95 to 7.8 uM by Lineweaver-Burk plot analysis; details: dose 1.95-7.8 µM
Rattus norvegicus [20] = assay: Anti-diabetic activity in STZ-induced diabetic Sprague-Dawley rat model assessed as increase in body weight at 9 mg/kg, ip measured at day 28; format: functional, organism-based; details: time 28.0 day
Homo sapiens = organism: Homo sapiens; assay: Competitive inhibition of alpha-glucosidase (unknown origin) […] using p-nitrophenyl glucopyranoside as substrate assessed as increase in Km with constant Vmax upto 180 uM using varying concentrations of substrate measured for 20 mins by Lineweaver-Burk plot analysis
[21] = Inhibition of alpha-glucosidase (unknown origin) using p-nitrophenyl glucopyranoside as substrate assessed as inhibition constant by Lineweaver-Burk plot analysis; parameters: species or system Homo sapiens

Cholinesterase, sequence (P06276 whole entry): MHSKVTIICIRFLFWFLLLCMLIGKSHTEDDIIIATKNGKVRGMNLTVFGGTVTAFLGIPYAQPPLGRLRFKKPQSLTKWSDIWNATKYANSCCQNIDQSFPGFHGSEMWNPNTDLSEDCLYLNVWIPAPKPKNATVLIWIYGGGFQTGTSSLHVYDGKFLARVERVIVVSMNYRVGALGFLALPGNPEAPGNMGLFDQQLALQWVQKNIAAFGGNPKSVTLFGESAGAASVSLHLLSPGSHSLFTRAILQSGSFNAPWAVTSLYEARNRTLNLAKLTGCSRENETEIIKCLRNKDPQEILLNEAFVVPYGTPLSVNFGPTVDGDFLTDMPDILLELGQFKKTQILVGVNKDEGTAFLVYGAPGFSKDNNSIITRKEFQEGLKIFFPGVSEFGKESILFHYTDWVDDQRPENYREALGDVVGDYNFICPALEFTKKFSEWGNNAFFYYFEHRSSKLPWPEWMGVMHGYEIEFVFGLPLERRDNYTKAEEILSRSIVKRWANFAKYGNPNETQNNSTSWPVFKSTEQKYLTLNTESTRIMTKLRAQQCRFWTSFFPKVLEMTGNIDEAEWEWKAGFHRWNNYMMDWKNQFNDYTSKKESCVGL
T1 sequence (P22303 whole entry): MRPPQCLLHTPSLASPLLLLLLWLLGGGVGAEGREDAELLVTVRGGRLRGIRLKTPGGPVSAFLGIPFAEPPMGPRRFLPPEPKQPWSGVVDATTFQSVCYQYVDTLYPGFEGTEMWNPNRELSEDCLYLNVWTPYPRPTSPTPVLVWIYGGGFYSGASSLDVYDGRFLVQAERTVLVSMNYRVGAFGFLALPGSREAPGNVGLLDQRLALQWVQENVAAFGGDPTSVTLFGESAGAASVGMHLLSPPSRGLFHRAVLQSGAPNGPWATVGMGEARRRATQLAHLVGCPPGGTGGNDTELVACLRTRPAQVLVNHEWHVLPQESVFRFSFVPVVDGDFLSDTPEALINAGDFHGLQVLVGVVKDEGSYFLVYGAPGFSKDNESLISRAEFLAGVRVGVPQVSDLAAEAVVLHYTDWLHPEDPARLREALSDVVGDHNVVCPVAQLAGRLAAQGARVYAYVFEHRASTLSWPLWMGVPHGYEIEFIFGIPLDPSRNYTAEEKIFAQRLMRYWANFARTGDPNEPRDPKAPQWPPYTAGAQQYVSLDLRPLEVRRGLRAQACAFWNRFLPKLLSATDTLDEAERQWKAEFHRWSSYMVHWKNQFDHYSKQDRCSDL

Structure (SMILES)	IC50 [1]	IC50 (Cholinesterase) [nM]	IC50 [2] [nM]	IC50 (Acetylcholinesterase [3]) [nM]	IC50 [4]	Activity (Rattus norvegicus [5]) [mg/dL]	Activity (Rattus norvegicus [6]) [mg/dL]	Activity (Rattus norvegicus [7])	Activity [8]	Activity (Rattus norvegicus [9])	Activity (Rattus norvegicus [11]) [mg/dL]	Activity (Rattus norvegicus [12]) [mg/dL]	Activity (Rattus norvegicus [13])	Activity (Rattus norvegicus [14]) [mg/dL]	Activity (Rattus norvegicus [15]) [mg/dL]	Activity (Rattus norvegicus [16]) [mg/dL]	Activity (Rattus norvegicus [17]) [mg/dL]	Activity (Rattus norvegicus [18]) [mg/dL]	Activity (Rattus norvegicus [20])	further results
CCOC(=O)C1=C(Nc2ccc(F)cc2)CC(c2cccc(F)c2)N(c2ccc(F)cc2)C1c1cccc(F)c1 (stereo not drawn)	950 nM	1330	457	1120	562 nM															
Cc1c(C)c2c(c(C)c1O)CCC(C)(C(=O)O)O2 (stereo not drawn) [TROLOX]					28 nM															
CCOC(=O)C1=C(Nc2cccc(F)c2)CC(c2ccc(F)cc2)N(c2cccc(F)c2)C1c1ccc(F)cc1 (stereo not drawn)	1100 nM	1990	367	1420	519 nM															
O=C1O[C@H]([C@@H](O)CO)C(O)=C1O [ASCORBIC ACID]	640 nM																			
CCOC(=O)C1=C(Nc2ccc(F)cc2)CC(c2ccc(F)cc2)N(c2ccc(F)cc2)C1c1ccc(F)cc1 (stereo not drawn)	691 nM and 690 nM	739	251	774	22 nM and 20 nM	27.73	501.12	Active	Non-Toxic	Active	97.65	59.16	Active	256.71	91.16	159.45	419.93	341.51	Active	Ki (Acetylcholinesterase [10]): 2050 nM; inhibition (Acetylcholinesterase [19]): Active
C[C@H]1O[C@H](O[C@H]2[C@H](O)[C@@H](O)[C@@H](O[C@H]3[C@H](O)[C@@H](O)C(O)O[C@@H]3CO)O[C@@H]2CO)[C@H](O)[C@@H](O)[C@@H]1N[C@H]1C=C(CO)[C@@H](O)[C@H](O)[C@H]1O (stereo partly drawn) [ACARBOSE]			28700																	
CCOC(=O)C1=C(Nc2ccc(F)cc2)CC(c2ccc(Cl)cc2)N(c2ccc(F)cc2)C1c1ccc(Cl)cc1 (stereo not drawn)	1320 nM	1020	291	916	461 nM	28.09	498.7	Active	Non-Toxic	Active	104.2	61.39	Active	244.27	87.96	167.81	427.82	349.78	Active	
CCOC(=O)C1=C(Nc2cccc(F)c2)CC(c2ccc(C(F)(F)F)cc2)N(c2cccc(F)c2)C1c1ccc(C(F)(F)F)cc1 (stereo not drawn)	814 nM	1270	220	1190	629 nM	31.06	495.39	Active	Non-Toxic	Active	93.71	51.22	Active	240.19	78.67	152.61	422.69	334.29	Active	
CCOC(=O)C1=C(Nc2ccccc2)CC(c2ccc(F)cc2)N(c2ccccc2)C1c1ccc(F)cc1 (stereo not drawn)	1050 nM	1280	473	1360	216 nM															
CCOC(=O)C1=C(Nc2cccc(F)c2)CC(c2ccc(Cl)cc2)N(c2cccc(F)c2)C1c1ccc(Cl)cc1 (stereo not drawn)	983 nM	1700	384	1270	712 nM															
CCOC(=O)C1=C(Nc2ccc(F)cc2)CC(c2ccc(C(F)(F)F)cc2)N(c2ccc(F)cc2)C1c1ccc(C(F)(F)F)cc1 (stereo not drawn)	633 nM	1020	176	932	167 nM	33.51	497.98	Active	Non-Toxic	Active	91.96	47.51	Active	231.77	75.05	138.56	417.55	320.81	Active	inhibition (Homo sapiens): Active; Ki [21]: 117 µM
